The nature of data set [1]: Cytotoxicity against bovine MDBK cells assessed as cell viability after 72 hrs by MTT method. The format is cell-based, Bos taurus. As to conditions: cattle.
For data set [2], the system named is Bovine viral diarrhea virus 1. The data set is described as follows: Antiviral activity against BVDV infected in bovine MDBK cells assessed as protection against viral-induced cytopathogenecity after 3 to 4 days by MTT method. The format is functional, organism-based. As to conditions: Bovine viral diarrhea virus isolates and strains, MDBK. (Formazan colour is commonly taken as a measure of viable cells.)

A short description of data set [3]: Selectivity index, ratio of CC50 for bovine MDBK cells to EC50 for BVDV infected in bovine MDBK cells.
Data set [4] can be described thus: Cytotoxicity against hamster BHK21 cells assessed as cell viability after 72 hrs by MTT method. It is filed as cell-based, Mesocricetus auratus, BHK-21.
Data set [5] has as its system Yellow fever virus. The data set is described as follows: Antiviral activity against YFV infected in hamster BHK21 cells assessed as protection against viral-induced cytopathogenecity after 3 to 4 days by MTT method. It is filed as functional, organism-based, BHK-21. As to conditions: Yellow fever virus, BHK-21.
Data set [6] can be described thus: Cytotoxicity against African green monkey Vero 76 cells assessed as cell viability after 48 to 96 hrs by MTT method. The conditions noted are these: chlorocebus sabaeus, Vero 76 cells. The format is cell-based.
Data set [7] concerns Respiratory syncytial virus. The data set is described as follows: Antiviral activity against RSV infected in African green monkey Vero 76 cells after 5 days by plaque reduction assay. As to conditions: human respiratory syncytial virus, Vero, 120 h. The format is functional, organism-based. On the technique in general: Plaque reduction counts the foci of infection that form in a cell layer.

The nature of data set [8]: Selectivity index, ratio of CC50 for African green monkey Vero 76 cells to EC50 for RSV infected in African green monkey Vero 76 cells.
Data set [9] in a line: Cytotoxicity against human MT4 cells assessed as cell viability after 96 hrs by MTT method. It is filed as cell-based.
Data set [10] deals with Human immunodeficiency virus 1. The data set is described as follows: Antiviral activity against HIV1 infected in human MT4 cells assessed as protection against viral-induced cytopathogenecity after 4 days by MTT method. It is filed as functional, organism-based. The conditions noted are these: Human immunodeficiency virus 1, MT4, 96 h.
The subject of data set [11] is Mammalian orthoreovirus 1. The data set is described as follows: Antiviral activity against Reovirus 1 infected in hamster BHK21 cells assessed as protection against viral-induced cytopathogenecity after 3 to 4 days by MTT method. As to conditions: Mammalian orthoreovirus 1, BHK-21. It is filed as functional, cell-based.
Data set [12] deals with Coxsackievirus B5. The data set can be described thus: Antiviral activity against Coxsackievirus B5 infected in African green monkey Vero 76 cells after 3 days by plaque reduction assay. As to conditions: Enterovirus B, Vero, 72 h. It is filed as functional, organism-based.
Data set [13] concerns Enterovirus C. The data set can be described thus: Antiviral activity against Poliovirus Sb-1 infected in African green monkey Vero 76 cells after 2 days by plaque reduction assay. The format is functional, organism-based. As to conditions: Enterovirus C, Sb-1, Vero, 48 h.
The subject of data set [14] is Vaccinia virus. The data set can be described thus: Antiviral activity against Vaccinia virus infected in African green monkey Vero 76 cells after 3 days by plaque reduction assay. It is filed as functional, organism-based, Orthopoxvirus vaccinia. As to conditions: Orthopoxvirus vaccinia, Vero, 72 h.
Data set [15] has as its system Human alphaherpesvirus 1. The data set is described as follows: Antiviral activity against HSV1 infected in African green monkey Vero 76 cells after 3 days by plaque reduction assay. The format is functional, organism-based. As to conditions: Human alphaherpesvirus 1, Vero, 72 h.
Data set [16] relates to Vesicular stomatitis virus. The data set is described as follows: Antiviral activity against VSV infected in African green monkey Vero 76 cells after 2 days by plaque reduction assay. The format is functional, organism-based. As to conditions: Vesicular stomatitis virus, Vero, 48 h.
A short description of data set [17]: Selectivity index, ratio of CC50 for hamster BHK21 cells to EC50 for YFV infected in hamster BHK21 cells. Set-up: species or system BHK-21.

Consider `Clc1ccc(NCc2cn(-c3ccccc3)nc2-c2ccc(Cl)cc2)cc1`, for which the half-maximal cytotoxic concentration (CC50) – broadly, the concentration at which the toxic effect on the cells reaches its halfway point – at 72 h is more than 100 µM in [1] and 73 µM in [4]. The EC50 (commonly the concentration needed to bring the measured effect to its halfway point) is 31 µM in [2]; more than 73 µM in data set [5]; 13 µM in [7]; more than 100 µM in data set [10]; more than 73 µM in data set [11]; more than 90 µM in data set [12]. Further, the half-maximal effective concentration (EC50) in data set [13], in data set [14], in data set [15] and in [16] was more than 90 µM each time. The “Ratio CC50/EC50” value in data set [3] is more than 3.2; in data set [8], 6.9. For the same compound, the CC50 in [6] was 90 µM. In addition, the CC50 at 96 h in data set [9] is more than 100 µM.

`Cc1ccc(NCc2cn(-c3ccccc3)nc2-c2ccc(Cl)cc2)cc1`: the CC50 at 72 h in [1] and in data set [4] was more than 100 µM throughout. Besides, the EC50 is 55 µM in data set [2]; more than 100 µM in [5]; 13 µM in data set [7]; more than 100 µM in [10]; more than 100 µM in data set [11]; more than 100 µM in data set [12]. Also, the EC50 in [13], in data set [14], in data set [15] and in data set [16] was more than 100 µM in each case. The “Ratio CC50/EC50” value in [3] is listed as more than 1.8; in data set [8], more than 7.7. The half-maximal cytotoxic concentration (CC50) in data set [6] is more than 100 µM. Also, the CC50 at 96 h in data set [9] was more than 100 µM.

In the case of `Brc1ccc(NCc2cn(-c3ccccc3)nc2-c2ccc(Br)cc2)cc1`, the cytotoxic concentration (CC50) at 72 h in [1] and in [4] was more than 100 µM throughout. Moreover, the concentration for a half-maximal effect (EC50) is more than 100 µM in data set [2]; 54 µM in data set [5]; 8 µM in data set [7]; more than 100 µM in data set [10]; more than 100 µM in data set [11]; more than 88 µM in data set [12]. Also, the concentration giving a half-maximal response (EC50) in data set [13], in data set [14], in [15] and in data set [16] was more than 88 µM throughout. Moreover, the “Ratio CC50/EC50” value in [17] was more than 1.8; in data set [8], 11. In [6], the CC50 came to 88 µM. Moreover, the half-maximal cytotoxic concentration (CC50) at 96 h in [9] is more than 100 µM.

In the case of `Cc1ccc(-c2nn(-c3ccccc3)cc2CNc2ccc(Cl)cc2)cc1`, the CC50 at 72 h in data set [1] and in data set [4] was more than 100 µM in each case. For the same compound, the EC50 in [2] is more than 100 µM; in data set [5], 34 µM; in [7] it was 14 µM; in [10], more than 100 µM; in [11] it was more than 100 µM; in data set [12], more than 100 µM. Besides, the concentration for a half-maximal effect (EC50) in data set [13], in [14], in data set [15] and in [16] was more than 100 µM in each case. Besides, the “Ratio CC50/EC50” value in data set [17] is more than 2.9; in data set [8], more than 7.1. For the same compound, the CC50 in data set [6] was more than 100 µM. Further, the CC50 at 96 h in data set [9] is more than 100 µM.

Turning to `Cc1ccc(-c2nn(-c3ccccc3)cc2CNc2ccccc2)cc1`, the CC50 at 72 h in data set [1] and in [4] was more than 100 µM throughout. For the same compound, the EC50 is more than 100 µM in data set [2]; 38 µM in data set [5]; 23 µM in [7]; more than 100 µM in data set [10]; more than 100 µM in [11]; more than 52 µM in [12]. Further, the half-maximal effective concentration (EC50) in [13], in [14], in [15] and in [16] was more than 52 µM throughout. Moreover, the “Ratio CC50/EC50” value is given as more than 2.6 in [17] and 2.3 in [8]. Besides, in data set [6], the CC50 is 52 µM. Further, the CC50 at 96 h in [9] is more than 100 µM.

With `Brc1ccc(NCc2cn(-c3ccccc3)nc2-c2ccccc2)cc1`, the CC50 at 72 h in data set [1] and in data set [4] was more than 100 µM each time. Also, the concentration giving a half-maximal response (EC50) in data set [2] is 31 µM; in data set [5] it was 32 µM; in data set [7], 9 µM; in data set [10] it was more than 100 µM; in data set [11], more than 100 µM; in data set [12] it was more than 52 µM. Further, the concentration for a half-maximal effect (EC50) in [13], in data set [14], in data set [15] and in data set [16] was more than 52 µM in each case. The “Ratio CC50/EC50” value is recorded as more than 3.2 in data set [3], more than 3.1 in data set [17] and 5.8 in [8]. Also, the CC50 in data set [6] was 52 µM. Moreover, the half-maximal cytotoxic concentration (CC50) at 96 h in data set [9] was more than 100 µM.

With `Clc1ccc(NCc2cn(-c3ccccc3)nc2-c2ccccc2)cc1`, the half-maximal cytotoxic concentration (CC50) at 72 h in data set [1] and in [4] was more than 100 µM in each case. Besides, the EC50 in data set [2] was 29 µM; in data set [5] it was 29 µM; in data set [7] it was 6 µM; in data set [10] it was more than 100 µM; in [11] it was more than 100 µM; in [12], more than 65 µM. Further, the EC50 in data set [13], in [14], in data set [15] and in data set [16] was more than 65 µM throughout. Also, the “Ratio CC50/EC50” value in data set [3] is given as more than 3.4; in [8], 10.8. Further, the CC50 in data set [6] was determined as 65 µM. In addition, in data set [9], the cytotoxic concentration (CC50) at 96 h was more than 100 µM.

`Cc1ccc(NCc2cn(-c3ccccc3)nc2-c2ccccc2)cc1`: the half-maximal cytotoxic concentration (CC50) at 72 h in data set [1] and in data set [4] was more than 100 µM throughout. The EC50 was 53 µM in [2]; 65 µM in [5]; 28 µM in data set [7]; more than 100 µM in data set [10]; more than 100 µM in [11]; more than 100 µM in data set [12]. For the same compound, the EC50 in data set [13], in [14], in data set [15] and in data set [16] was more than 100 µM in each case. In addition, the “Ratio CC50/EC50” value in data set [3] was more than 1.9; in data set [17], more than 1.5; in [8], more than 3.6. Moreover, the CC50 in [6] is more than 100 µM. In addition, the cytotoxic concentration (CC50) at 96 h in data set [9] was more than 100 µM.

Turning to `Cc1ccc(NCc2cn(-c3ccccc3)nc2-c2ccc(C(F)(F)F)cc2)cc1`, the CC50 at 72 h in data set [1] was more than 100 µM; in [4], 88 µM. Further, the EC50 in data set [2] is 54 µM; in [5] it was more than 88 µM; in data set [7], 25 µM; in data set [10], more than 100 µM; in [11] it was more than 88 µM; in data set [12] it was more than 82 µM. For the same compound, the concentration giving a half-maximal response (EC50) in [13], in data set [14], in data set [15] and in data set [16] was more than 82 µM throughout. The “Ratio CC50/EC50” value was more than 1.8 in [3] and 3.3 in data set [8]. In addition, in [6], the 50% cytotoxic concentration (CC50) was 82 µM. The cytotoxic concentration (CC50) at 96 h in data set [9] was more than 100 µM.

As for `NC(=O)c1ncn([C@@H]2O[C@H](CO)[C@@H](O)[C@H]2O)n1` [RIBAVIRIN], in data set [1], the cytotoxic concentration (CC50) at 72 h turned out to be 57 µM. For the same compound, the EC50 in data set [2] turned out to be 19 µM; in [7], 35 µM. Moreover, the “Ratio CC50/EC50” value in data set [3] is reported as 3; in data set [8] it was more than 2.8. Further, in data set [6], the CC50 was more than 100 µM.
